In patent publication US8507411B2, “Neoglycorandomization and digitoxin analogs” (priority 2004, dated 2013):
Like-named read-outs stand apart in the source and are kept apart here.

Legend:
NCI/ADR-RES = assay: cells; type: cell-based, human
Method in brief: (§1)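 Cells seeded at 10,000–15,000/well, allowed 1 h attachment at 37 °C, then exposed to compounds for 72 h over five two-fold dilutions. After a PBS wash, calcein AM was added for 30 min at 37 °C and fluorescence read at 485/535 nm. IC50 from four-parameter logistic fit, ≥6 replicates.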

SK-OV-3 = assay: cells; type: cell-based, human
Method in brief: as §1

SF-268 = assay: cells; type: cell-based, human
Method in brief: as §1

HCT-116 = assay: High-throughput calcein AM cytotoxicity assay, HCT-116; type: cell-based, human
From the text: (§2) Standard errors are depicted with error bars.

Hep3B = assay: High-throughput calcein AM cytotoxicity assay, Hep3B; type: cell-based, human; conditions: Hep 3B cells, read-out: IC50, Hep 3B
From the text: as §2

Na+/K+-ATPase = target: T1, Na+/K+-ATPase (Homo sapiens, UniProt P05023); assay: Non-radioactive rubidium ion uptake assay, HEK-293 cells; type: cell-based; conditions: read-out: Na+/K+-ATPase Inhibition IC50
T1 construct: endogenous in cells; host or cells: HEK-293
Description: Na/K-ATPase Assays. Inhibition of Na^+/K^+-ATPase on HEK-293 cells and CHO-K1 cells by the library hits was determined by Aurora Biomed, Inc. using a high-throughput non-radioactive rubidium ion uptake assay. Experiments were conducted in duplicate using three different concentrations. Within each experiment, percent inhibition values at the three concentrations were expressed as the percent reduction of the maximum absorption signal observed for a 0 nM control. IC50 values were determined using the following formula: IC50=[(50−low %)/(high %−low %)]×(high conc.−low conc.)+low conc.
To assess how these structural modifications impact the ability of library members to inhibit Na^+/K^+-ATPases, a fundamental activity of cardiac glycosides (Paula, S., et al., (2005) Biochemistry 44, 498-510), library hits 5β, 15β, 23β, 27β, 33β, 40β, and digitoxin (1) were submitted to a non-radioactive rubidium uptake assay to gauge Na^+/K^+-ATPase inhibition in both […] human embryonic kidney cells and CHO-K1 hamster ovary cells (Gill, S. et al., (2004) ASSAY and Drug Development Technologies 2, 535-542).

A549 = assay: High-throughput calcein AM cytotoxicity assay, A549; type: cell-based, human; conditions: read-out: IC50, A549
From the text: as §2

MCF7 = assay: High-throughput calcein AM cytotoxicity assay, MCF7; type: cell-based, human; conditions: read-out: IC50, MCF7
From the text: as §2

NmuMG = assay: cells; type: cell-based, mouse; conditions: read-out: IC50, NmuMG
Method in brief: as §1

[1] = NCI/ADR-RES cells, read-out: IC50, NCI/ADR-RES
[2] = SK-OV-3 cells, read-out: IC50, SK-OV-3
[3] = SF-268 cells, read-out: IC50, SF-268
[4] = HCT-116 cells, read-out: IC50, HCT-116
[5] = NmuMG mouse mammary normal epithelial control line

Row | Compound | IC50 (NCI/ADR-RES; [1]) [nM] | IC50 (SK-OV-3; [2]) [nM] | IC50 (SF-268; [3]) [nM] | IC50 (HCT-116; HCT-116, 72 h, calcein AM, read-out: IC50) [nM] | IC50 (HCT-116; [4]) [nM] | IC50 (Hep3B) [nM] | IC50 (Na+/K+-ATPase) [nM] | IC50 (A549; A549 cells) [nM] | IC50 (MCF7; MCF7 cells) [nM] | IC50 (NmuMG; [5]) [nM] | IC50 (NCI/ADR-RES; NCI/ADR-RES, 72 h, calcein AM, read-out: IC50) [nM] | IC50 (NCI/ADR-RES; Homo sapiens, NCI/ADR-RES, read-out: IC50, NCI/ADR-RES) [nM] | IC50 (SK-OV-3; Homo sapiens, SK-OV-3, read-out: IC50, SK-OV-3) [nM] | IC50 (SF-268; Homo sapiens, SF-268, read-out: IC50, SF-268) [nM] | IC50 (HCT-116; Homo sapiens, HCT-116, HCT-116 cells, read-out: IC50, HCT-116) [nM] | IC50 (Hep3B; Homo sapiens, Hep3B) [nM] | IC50 (A549; Homo sapiens, A549, A549 cells) [nM] | IC50 (MCF7; Homo sapiens, MCF7, MCF7 cells) [nM] | IC50 (NmuMG; Mus musculus) [nM]
1 | CON([C@H]1CC[C@@]2(C)[C@H](CC[C@@H]3[C@@H]2CC[C@]2(C)[C@@H](C4=CC(=O)OC4)CC[C@]32O)C1)[C@H]1OC[C@H](O)[C@H](O)[C@@H]1O [5β, L-riboside] | 32 | 45 | 230 | 18 ± 2 | 18 | 59 | > 300000 | 33 | 190 | 31 | – | – | – | – | – | – | – | – | –
2 | CON([C@H]1CC[C@@]2(C)[C@H](CC[C@@H]3[C@@H]2CC[C@]2(C)[C@@H](C4=CC(=O)OC4)CC[C@]32O)C1)[C@H]1OC[C@H](O)[C@@H](O)[C@@H]1O [23β, L-xyloside] | 138 | 220 | 490 | – | 100 | 500 | > 300000 | 79 | 230 | 57 | – | – | – | – | – | – | – | – | –
3 | CON([C@H]1CC[C@@]2(C)[C@H](CC[C@@H]3[C@@H]2CC[C@]2(C)[C@@H](C4=CC(=O)OC4)CC[C@]32O)C1)[C@@H]1O[C@H](CO)[C@@H](O)[C@H](O)[C@@H]1O [27β, D-mannoside] | – | 800 | 2200 | – | 800 | 400 | > 200000 | 630 | 1700 | 1000 | 100 ± 10 | – | – | – | – | – | – | – | –
4 | C[C@H]1O[C@@H](O[C@H]2[C@@H](O)C[C@H](O[C@H]3[C@@H](O)C[C@H](O[C@H]4CC[C@@]5(C)[C@H](CC[C@@H]6[C@@H]5CC[C@]5(C)[C@@H](C7=CC(=O)OC7)CC[C@]65O)C4)O[C@@H]3C)O[C@@H]2C)C[C@H](O)[C@@H]1O [digitoxin] | – | – | – | – | – | – | 75400 ± 500 | – | – | – | – | 220 | 700 | 1500 | 170 | 220 | 280 | 320 | > 25000
